Assay results published in article PMC7260718, “Novel routes towards bioplastics from plants: elucidation of the methylperillate biosynthesis pathway from Salvia dorisiana trichomes” (Journal of Experimental Botany, 2020).
One block for each compound: values may come before it.

Experiments:
SdLiS = biological target: T1, SdLiS (Salvia dorisiana, UniProt A0A6G5RUG7); experiment: in vitro terpene synthase assay, GC-MS; assay type: cell-based; conditions: product linalool; conditions by reference to earlier study
T1 construct: gene LiS; plastid targeting signal removed, pCDF-duet, E. coli
T1 sequence (A0A6G5RUG7 55-582 limits assumed): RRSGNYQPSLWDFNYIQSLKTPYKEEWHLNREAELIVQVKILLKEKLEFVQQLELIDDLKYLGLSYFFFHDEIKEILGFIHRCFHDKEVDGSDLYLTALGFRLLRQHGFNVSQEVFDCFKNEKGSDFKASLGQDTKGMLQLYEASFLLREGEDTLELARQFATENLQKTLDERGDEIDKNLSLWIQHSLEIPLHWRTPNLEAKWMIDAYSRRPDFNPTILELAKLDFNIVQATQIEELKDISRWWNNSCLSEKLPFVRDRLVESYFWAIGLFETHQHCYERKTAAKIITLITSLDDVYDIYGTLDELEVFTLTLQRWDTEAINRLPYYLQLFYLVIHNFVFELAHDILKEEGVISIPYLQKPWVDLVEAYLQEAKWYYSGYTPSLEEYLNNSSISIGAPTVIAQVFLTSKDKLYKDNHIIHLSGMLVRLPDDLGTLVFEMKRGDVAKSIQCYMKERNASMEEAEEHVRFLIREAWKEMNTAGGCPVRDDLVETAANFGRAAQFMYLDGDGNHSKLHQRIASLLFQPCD

SdPS = biological target: T2, SdPS (Salvia dorisiana, UniProt A0A6G5RTD3); experiment: in vitro terpene synthase assay, GC-MS; assay type: cell-based; conditions: product beta-pinene; conditions by reference to earlier study
T2 construct: gene PS; plastid targeting signal removed, pCDF-duet, E. coli
T2 sequence (A0A6G5RTD3 60-600): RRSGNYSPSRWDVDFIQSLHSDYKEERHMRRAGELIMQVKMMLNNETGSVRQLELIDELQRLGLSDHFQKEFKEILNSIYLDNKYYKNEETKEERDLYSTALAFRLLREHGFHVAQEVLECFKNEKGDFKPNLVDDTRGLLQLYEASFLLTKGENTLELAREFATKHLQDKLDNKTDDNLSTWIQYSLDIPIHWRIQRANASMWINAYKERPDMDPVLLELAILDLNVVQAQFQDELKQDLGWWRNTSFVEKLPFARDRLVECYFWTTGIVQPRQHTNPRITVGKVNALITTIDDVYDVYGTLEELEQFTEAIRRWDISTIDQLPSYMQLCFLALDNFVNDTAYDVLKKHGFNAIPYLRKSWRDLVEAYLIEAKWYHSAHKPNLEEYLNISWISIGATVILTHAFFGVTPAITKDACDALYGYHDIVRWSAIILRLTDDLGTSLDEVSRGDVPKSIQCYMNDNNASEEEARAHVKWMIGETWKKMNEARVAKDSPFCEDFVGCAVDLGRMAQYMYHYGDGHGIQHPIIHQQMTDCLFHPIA

SdSaS = biological target: T3, SdSaS (Salvia dorisiana, UniProt A0A6G5RTE6); experiment: in vitro terpene synthase assay, GC-MS; assay type: cell-based; conditions: product sabinene; conditions by reference to earlier study
T3 construct: gene SaS; plastid targeting signal removed, pCDF-duet, E. coli
T3 sequence (A0A6G5RTE6 1-538): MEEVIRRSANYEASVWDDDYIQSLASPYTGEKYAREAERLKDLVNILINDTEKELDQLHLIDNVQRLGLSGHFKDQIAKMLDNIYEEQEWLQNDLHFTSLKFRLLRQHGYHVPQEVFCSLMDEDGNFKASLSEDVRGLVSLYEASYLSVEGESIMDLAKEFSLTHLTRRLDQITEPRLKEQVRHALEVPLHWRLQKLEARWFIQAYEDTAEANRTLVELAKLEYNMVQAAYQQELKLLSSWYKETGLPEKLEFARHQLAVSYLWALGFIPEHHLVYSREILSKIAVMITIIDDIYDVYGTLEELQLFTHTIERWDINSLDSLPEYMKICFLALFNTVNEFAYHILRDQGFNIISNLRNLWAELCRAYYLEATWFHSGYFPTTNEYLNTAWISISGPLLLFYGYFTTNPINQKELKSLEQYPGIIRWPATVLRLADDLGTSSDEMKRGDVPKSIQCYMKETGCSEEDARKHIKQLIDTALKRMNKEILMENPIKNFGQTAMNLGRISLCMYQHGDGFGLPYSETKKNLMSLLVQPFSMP

SdPCS = biological target: T4, SdPCS (Salvia dorisiana, UniProt A0A6G5RV47); experiment: in vitro terpene synthase assay, GC-MS; assay type: cell-based; conditions: products alpha-pinene and camphene; conditions by reference to earlier study
T4 construct: gene PCS; plastid targeting signal removed, pCDF-duet, E. coli
T4 sequence (A0A6G5RV47 52-589): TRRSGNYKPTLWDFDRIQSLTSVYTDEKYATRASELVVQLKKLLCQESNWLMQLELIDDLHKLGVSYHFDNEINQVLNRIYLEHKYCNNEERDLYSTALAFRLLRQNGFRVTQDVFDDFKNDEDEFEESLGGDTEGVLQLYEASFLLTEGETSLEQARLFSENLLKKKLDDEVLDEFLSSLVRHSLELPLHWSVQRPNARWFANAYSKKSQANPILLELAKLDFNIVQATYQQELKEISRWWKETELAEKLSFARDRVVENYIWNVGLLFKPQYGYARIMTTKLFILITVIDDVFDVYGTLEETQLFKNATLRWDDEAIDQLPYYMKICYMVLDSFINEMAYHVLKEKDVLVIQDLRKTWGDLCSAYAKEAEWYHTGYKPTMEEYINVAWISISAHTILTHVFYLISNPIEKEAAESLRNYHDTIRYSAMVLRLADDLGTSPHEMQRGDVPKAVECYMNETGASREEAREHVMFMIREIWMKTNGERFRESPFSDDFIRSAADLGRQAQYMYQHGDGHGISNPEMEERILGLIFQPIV

SdEuS = biological target: T5, SdEuS (Salvia dorisiana, UniProt A0A6G5RUA2); experiment: in vitro terpene synthase assay, GC-MS; assay type: cell-based; conditions: product eucalyptol; conditions by reference to earlier study
T5 construct: gene EuS; plastid targeting signal removed, pCDF-duet, E. coli
T5 sequence (A0A6G5RUA2 55-578): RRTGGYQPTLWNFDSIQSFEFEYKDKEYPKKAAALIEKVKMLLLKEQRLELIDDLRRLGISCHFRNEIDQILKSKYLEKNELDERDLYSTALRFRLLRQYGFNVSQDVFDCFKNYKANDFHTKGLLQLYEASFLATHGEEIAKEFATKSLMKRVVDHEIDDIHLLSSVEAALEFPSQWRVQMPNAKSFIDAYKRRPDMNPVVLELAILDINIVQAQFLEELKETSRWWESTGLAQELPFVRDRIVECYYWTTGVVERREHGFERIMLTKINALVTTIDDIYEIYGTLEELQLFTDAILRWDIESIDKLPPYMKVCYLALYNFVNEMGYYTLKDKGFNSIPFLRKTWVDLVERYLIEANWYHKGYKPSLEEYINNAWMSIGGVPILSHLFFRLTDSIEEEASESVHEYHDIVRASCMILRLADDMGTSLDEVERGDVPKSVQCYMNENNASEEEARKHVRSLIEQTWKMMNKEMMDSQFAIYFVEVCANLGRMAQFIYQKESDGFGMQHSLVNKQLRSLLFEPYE

SdL7H = biological target: T6, SdL7H (Salvia dorisiana, UniProt A0A6G5RTT4); experiment: GC-MS of perillyl alcohol in culture extract; assay type: cell-based; conditions: yeast co-expressing limonene synthase, 30 °C, 96 h; also N. benthamiana with SdLS
T6 construct: gene L7H; expressed in Saccharomyces cerevisiae (limonene-producing strain Sc-PftLS) from pTEF plasmid; also in Nicotiana benthamiana
T6 sequence (A0A6G5RTT4 1-494): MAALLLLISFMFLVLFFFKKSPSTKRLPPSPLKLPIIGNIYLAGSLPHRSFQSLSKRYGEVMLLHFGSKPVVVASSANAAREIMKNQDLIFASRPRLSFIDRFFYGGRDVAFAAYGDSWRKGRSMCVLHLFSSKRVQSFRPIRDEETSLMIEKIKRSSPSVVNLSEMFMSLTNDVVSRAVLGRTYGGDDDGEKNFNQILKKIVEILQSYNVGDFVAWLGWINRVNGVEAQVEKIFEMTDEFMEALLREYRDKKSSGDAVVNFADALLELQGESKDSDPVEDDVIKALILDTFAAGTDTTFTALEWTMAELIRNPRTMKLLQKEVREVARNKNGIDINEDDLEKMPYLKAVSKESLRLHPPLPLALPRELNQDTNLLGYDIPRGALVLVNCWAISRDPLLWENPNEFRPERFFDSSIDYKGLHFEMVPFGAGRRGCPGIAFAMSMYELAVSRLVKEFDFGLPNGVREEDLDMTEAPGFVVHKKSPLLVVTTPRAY

SdPAOMT = biological target: T7, SdPAOMT (Salvia dorisiana, UniProt A0A6G5RV57); experiment: GC-MS of methyl ester product; assay type: biochemical; conditions: E. coli cell-free extract; 1 mM substrate, 1.28 mM SAM (from stocks), Tris-HCl pH 7.0, room temperature, 1 h
T7 construct: gene PAOMT; full length, pCDF-duet, E. coli BL21(DE3) cell-free extract
T7 sequence (A0A6G5RV57 1-359): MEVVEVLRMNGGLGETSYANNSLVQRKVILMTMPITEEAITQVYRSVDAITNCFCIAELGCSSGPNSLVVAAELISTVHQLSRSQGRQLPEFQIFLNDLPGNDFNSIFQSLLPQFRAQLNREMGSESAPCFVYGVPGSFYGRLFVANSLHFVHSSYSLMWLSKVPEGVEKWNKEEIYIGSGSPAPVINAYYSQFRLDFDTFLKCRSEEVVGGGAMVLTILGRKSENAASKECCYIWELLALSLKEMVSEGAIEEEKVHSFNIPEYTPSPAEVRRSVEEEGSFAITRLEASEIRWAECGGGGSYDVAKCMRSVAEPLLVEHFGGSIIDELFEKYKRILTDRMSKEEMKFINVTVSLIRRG

SdOMT9 = biological target: T8, SdOMT9 (Salvia dorisiana, UniProt A0A6G5RTF7); experiment: headspace GC-MS of methylperillate; conditions: N. benthamiana leaves co-infiltrated with perillic acid; minor activity
T8 construct: gene OMT9; transient expression in Nicotiana benthamiana leaves
T8 sequence (A0A6G5RTF7 1-344): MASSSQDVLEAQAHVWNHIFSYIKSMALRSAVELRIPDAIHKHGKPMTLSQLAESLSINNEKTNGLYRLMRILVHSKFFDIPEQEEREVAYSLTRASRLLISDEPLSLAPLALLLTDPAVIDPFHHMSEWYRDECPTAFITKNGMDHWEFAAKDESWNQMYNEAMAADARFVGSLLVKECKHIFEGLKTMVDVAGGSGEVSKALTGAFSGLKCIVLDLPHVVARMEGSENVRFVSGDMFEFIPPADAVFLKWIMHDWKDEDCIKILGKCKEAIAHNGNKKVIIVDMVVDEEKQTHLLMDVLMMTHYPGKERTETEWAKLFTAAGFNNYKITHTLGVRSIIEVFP

SdOMT4 = biological target: T9, SdOMT4 (Salvia dorisiana, UniProt A0A6G5RUB3); experiment: headspace GC-MS of methylperillate; conditions: N. benthamiana leaves co-infiltrated with perillic acid; minor activity
T9 construct: gene OMT4; transient expression in Nicotiana benthamiana leaves
T9 sequence (A0A6G5RUB3 1-349): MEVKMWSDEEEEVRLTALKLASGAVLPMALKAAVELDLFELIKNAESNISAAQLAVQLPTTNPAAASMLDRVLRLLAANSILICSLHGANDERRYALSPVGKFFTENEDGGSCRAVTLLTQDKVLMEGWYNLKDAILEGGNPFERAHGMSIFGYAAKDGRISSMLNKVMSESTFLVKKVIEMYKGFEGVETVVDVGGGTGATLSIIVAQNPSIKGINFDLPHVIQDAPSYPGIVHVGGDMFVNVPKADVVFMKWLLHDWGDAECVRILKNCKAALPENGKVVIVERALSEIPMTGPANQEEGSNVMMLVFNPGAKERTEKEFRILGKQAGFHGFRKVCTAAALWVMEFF

SdPOHDH = biological target: T10, SdPOHDH (Salvia dorisiana, UniProt A0A6G5RUH8); experiment: LC-MS of perillyl aldehyde markers; conditions: N. benthamiana leaves infiltrated with 400 µM perillyl alcohol, 4 h
T10 construct: gene POHDH; transient expression in Nicotiana benthamiana leaves (pB7WG2)
T10 sequence (A0A6G5RUH8 1-370): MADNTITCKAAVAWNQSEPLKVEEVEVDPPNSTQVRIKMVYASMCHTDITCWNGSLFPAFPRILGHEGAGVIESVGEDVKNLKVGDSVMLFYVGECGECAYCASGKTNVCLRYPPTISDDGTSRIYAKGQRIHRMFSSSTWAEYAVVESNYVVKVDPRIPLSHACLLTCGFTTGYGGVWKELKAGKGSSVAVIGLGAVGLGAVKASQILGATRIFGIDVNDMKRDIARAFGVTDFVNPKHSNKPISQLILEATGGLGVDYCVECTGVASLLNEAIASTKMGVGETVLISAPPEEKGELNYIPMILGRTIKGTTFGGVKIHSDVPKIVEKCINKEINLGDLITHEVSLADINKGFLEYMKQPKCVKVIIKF

in vitro terpene synthase assay, GC-MS (SdLiS): a linalool synthase SdLiS | in vitro terpene synthase assay, GC-MS (SdSaS): a sabinene synthase SdSaS | in vitro terpene synthase assay, GC-MS (SdPCS): an α-pinene/camphene synthase SdPCS | in vitro terpene synthase assay, GC-MS (SdEuS): a eucalyptol synthase SdEuS
Structure (SMILES): CC(C)=CCC/C(C)=C/COP(=O)(O)OP(=O)(O)O [geranyl diphosphate]
in vitro terpene synthase assay, GC-MS (SdPS): characterized by in vitro assays, including a β-pinene synthase SdPS

Structure (SMILES): C=C(C)[C@@H]1CC=C(C)CC1 [limonene]
GC-MS of perillyl alcohol in culture extract (SdL7H): indicating that limonene is indeed used as a substrate

Structure (SMILES): C=C(C)[C@@H]1CC=C(C(=O)O)CC1 [perillic acid]
GC-MS of methyl ester product (SdPAOMT): Cell-free extracts were tested with BA, SA, and PA as substrates, and SAM as methyl donor | headspace GC-MS of methylperillate (SdOMT9): only SdOMT4 and SdOMT9 showed minor MePA formation | headspace GC-MS of methylperillate (SdOMT4): only SdOMT4 and SdOMT9 showed minor MePA formation

LC-MS of perillyl aldehyde markers (SdPOHDH): SdPOHDH converted POH to PAldH
Structure (SMILES): C=C(C)[C@@H]1CC=C(CO)CC1 [perillyl alcohol]

Structure (SMILES): O=C(O)c1ccccc1O [salicylic acid]
GC-MS of methyl ester product (SdPAOMT): Methylated products were detected for all three substrates
